Experimental data published in ChEMBL document CHEMBL5223102, “CDK9 inhibitors in cancer research” (RSC Med Chem, 2022).
pIC50: −log10 of the molar value.

Key:
[1] = target: T1, Cyclin-dependent kinase 1/cyclin B (Homo sapiens, UniProt P06493); assay: Inhibition of CDK1/Cyclin B (unknown origin); type: protein-complex assay
[2] = Inhibition of CDK4/Cyclin D (unknown origin); set-up: species or system Homo sapiens
[3] = target: Cyclin-dependent kinase 5/CDK5 activator 1 (Homo sapiens, UniProt Q00535); assay: Inhibition of CDK5/p35 (unknown origin); type: protein-complex assay
[4] = Inhibition of CDK3/Cyclin E (unknown origin); set-up: species or system Homo sapiens
[5] = Inhibition of CDK6/Cyclin D3 (unknown origin); set-up: species or system Homo sapiens
[6] = Inhibition of CDK7/Cyclin H/MAT1 (unknown origin); set-up: species or system Homo sapiens
[7] = target: T2, Cyclin-dependent kinase 2 (Homo sapiens, UniProt P24941)
[8] = target: T3, Cyclin-dependent kinase 9 (Homo sapiens, UniProt P50750)
[9] = target: T4, Cyclin-dependent kinase 1 (Homo sapiens, UniProt P06493); assay: Inhibition of CDK1 (unknown origin) by Kinomescan method
[10] = target: T5, Cyclin-dependent kinase 8 (Homo sapiens, UniProt P49336); assay: Inhibition of CDK8 (unknown origin) by Kinomescan method
[11] = target: Dual specificity tyrosine-phosphorylation-regulated kinase 1B (Homo sapiens, UniProt Q9Y463); assay: Inhibition of DYRK1B (unknown origin) by Kinomescan method
[12] = target: T6, Cyclin-dependent kinase 18 (Homo sapiens, UniProt Q07002); assay: Inhibition of CDK18 (unknown origin) by Kinomescan method
[13] = target: T7, Cyclin-dependent kinase 14 (Homo sapiens, UniProt O94921); assay: Inhibition of CDK14 (unknown origin) by Kinomescan method
[14] = target: T8, Cyclin-dependent kinase 7 (Homo sapiens, UniProt P50613)
[15] = target: T9, Cyclin-dependent kinase 16 (Homo sapiens, UniProt Q00536); assay: Inhibition of CDK16 (unknown origin) by Kinomescan method
[16] = target: T3, Cyclin-dependent kinase 9; assay: Inhibition of CDK9 (unknown origin) by Kinomescan method
[17] = target: T10, Cyclin-dependent kinase 17 (Homo sapiens, UniProt Q00537); assay: Inhibition of CDK17 (unknown origin) by Kinomescan method
[18] = target: T11, Cyclin-dependent kinase 5 (Homo sapiens, UniProt Q00535); assay: Inhibition of CDK5 (unknown origin) by Kinomescan method
[19] = target: T2, Cyclin-dependent kinase 2; assay: Inhibition of CDK2 (unknown origin) by Kinomescan method
[20] = target: T3, Cyclin-dependent kinase 9; assay: Inhibition of CDK9 (unknown origin) at 1 uM by Kinomescan method
[21] = target: T12, Protein cereblon/Cyclin-dependent kinase 9 (Homo sapiens, UniProt P50750+Q96SW2); assay: Protac activity at CRBN/CDK9 in human MOLT-4 cells assessed as degradation of CDK9 measured after 6 hrs by western blot analysis; type: cell-based
[22] = target: T12, Protein cereblon/Cyclin-dependent kinase 9; assay: Protac activity at CRBN/CDK9 in human MCF7 cells assessed as degradation of CDK9 measured after 24 hrs by western blot analysis; type: cell-based
[23] = target: T5, Cyclin-dependent kinase 8; assay: Inhibition of CDK8 (unknown origin) incubated for 120 mins in presence of ATP by HotSpot kinase assay
[24] = target: T13, Cyclin-dependent kinase 4 (Homo sapiens, UniProt P11802); assay: Inhibition of CDK4 (unknown origin) incubated for 120 mins in presence of ATP by HotSpot kinase assay
[25] = target: T6, Cyclin-dependent kinase 18
[26] = target: T14, Cyclin-dependent kinase 6 (Homo sapiens, UniProt Q00534); assay: Inhibition of CDK6 (unknown origin) incubated for 120 mins in presence of ATP by HotSpot kinase assay
[27] = target: T7, Cyclin-dependent kinase 14; assay: Inhibition of CDK14 (unknown origin) incubated for 120 mins in presence of ATP by HotSpot kinase assay
[28] = target: T9, Cyclin-dependent kinase 16; assay: Inhibition of CDK16 (unknown origin) incubated for 120 mins in presence of ATP by HotSpot kinase assay
[29] = target: Cyclin-dependent kinase 3 (Homo sapiens, UniProt Q00526); assay: Inhibition of CDK3 (unknown origin) incubated for 120 mins in presence of ATP by HotSpot kinase assay
[30] = target: T10, Cyclin-dependent kinase 17; assay: Inhibition of CDK17 (unknown origin) incubated for 120 mins in presence of ATP by HotSpot kinase assay
[31] = target: Cyclin-dependent kinase 13 (Homo sapiens, UniProt Q14004)
[32] = target: Cyclin-dependent kinase 12 (Homo sapiens, UniProt Q9NYV4)
[33] = target: Cyclin-dependent kinase 19 (Homo sapiens, UniProt Q9BWU1); assay: Inhibition of CDK19 (unknown origin) incubated for 120 mins in presence of ATP by HotSpot kinase assay
[34] = target: T11, Cyclin-dependent kinase 5; assay: Inhibition of CDK5 (unknown origin) incubated for 120 mins in presence of ATP by HotSpot kinase assay
[35] = target: T2, Cyclin-dependent kinase 2; assay: Inhibition of CDK2 (unknown origin) incubated for 120 mins in presence of ATP by HotSpot kinase assay
[36] = target: T15, Cyclin-dependent kinase 2/cyclin A (Homo sapiens, UniProt P24941); assay: Inhibition of CDK2/cyclin A (unknown origin) assessed as substrate phosphorylation using ULight MBP peptide as substrate in presence of ATP incubated for 1 hr by FRET based LANCE Ultra KinaSelect screen assay; type: protein-complex assay
[37] = target: T8, Cyclin-dependent kinase 7; assay: Inhibition of CDK7 (unknown origin) assessed as substrate phosphorylation using ULight MBP peptide as substrate in presence of ATP incubated for 1 hr by FRET based LANCE Ultra KinaSelect screen assay
[38] = target: T14, Cyclin-dependent kinase 6; assay: Inhibition of CDK6 (unknown origin) assessed as substrate phosphorylation using ULight MBP peptide as substrate in presence of ATP incubated for 1 hr by FRET based LANCE Ultra KinaSelect screen assay
[39] = target: T16, Cyclin-dependent kinase 4/cyclin D1 (Homo sapiens, UniProt P11802); assay: Inhibition of CDK4/cyclin D1 (unknown origin) assessed as substrate phosphorylation using ULight MBP peptide as substrate in presence of ATP incubated for 1 hr by FRET based LANCE Ultra KinaSelect screen assay; type: protein-complex assay
[40] = target: Cyclin-dependent kinase 1/cyclin B1 (Homo sapiens, UniProt P06493); assay: Inhibition of CDK1/cyclin B1 (unknown origin) assessed as substrate phosphorylation using ULight MBP peptide as substrate in presence of ATP incubated for 1 hr by FRET based LANCE Ultra KinaSelect screen assay; type: protein-complex assay
[41] = target: CDK4/Cyclin D3 (Homo sapiens, UniProt P11802); assay: Inhibition of human CDK4/Cyclin D3 in presence of ATP; type: protein-complex assay
[42] = target: CDK9/cyclin T1 (Homo sapiens, UniProt P50750); assay: Inhibition of human CDK9/cyclin T1 in presence of ATP; type: protein-complex assay
[43] = target: T3, Cyclin-dependent kinase 9; assay: Inhibition of CDK9 (unknown origin) using TMB as substrate by ELISA
[44] = target: T15, Cyclin-dependent kinase 2/cyclin A; assay: Inhibition of CDK2/cyclin A (unknown origin) using GST-CTD and gamma-32P-ATP as substrate incubated for 5 min by […]; type: protein-complex assay
[45] = target: T13, Cyclin-dependent kinase 4; assay: Inhibition of CDK4 (unknown origin)
[46] = target: T1, Cyclin-dependent kinase 1/cyclin B; assay: Inhibition of human CDK1/Cyclin B in presence of gamma32P-ATP by scintillation counter analysis; type: protein-complex assay
[47] = target: T16, Cyclin-dependent kinase 4/cyclin D1; assay: Inhibition of human CDK4/Cyclin D1 assessed as substrate phosphorylation at ser780 using GST tagged retinoblastoma as substrate in presence of gamma32P-ATP by scintillation counter analysis; type: protein-complex assay
[48] = target: T15, Cyclin-dependent kinase 2/cyclin A; assay: Inhibition of human CDK2/Cyclin A in presence of gamma32P-ATP by scintillation counter analysis; type: protein-complex assay
[49] = target: CDK6/cyclin D3 (Homo sapiens, UniProt Q00534); assay: Inhibition of human CDK6/Cyclin D3 in presence of gamma32P-ATP by scintillation counter analysis; type: protein-complex assay
[50] = target: CDK9/Cyclin K (Homo sapiens, UniProt P50750); assay: Inhibition of CDK9/Cyclin K (unknown origin) by LanthaScreen binding assay; type: protein-complex assay
[51] = target: CDK8/Cyclin C (Homo sapiens, UniProt P49336); assay: Inhibition of CDK8/Cyclin C (unknown origin) by LanthaScreen binding assay; type: protein-complex assay
[52] = target: Cyclin-C/Cyclin-dependent kinase 19 (Homo sapiens, UniProt Q9BWU1); assay: Inhibition of CDK19/Cyclin C (unknown origin) by LanthaScreen binding assay; type: protein-complex assay
[53] = target: T8, Cyclin-dependent kinase 7; assay: Inhibition of CDK7 (unknown origin) by LANCE ULight TR-FRET assay
[54] = target: T4, Cyclin-dependent kinase 1; assay: Inhibition of CDK1 (unknown origin) by LANCE ULight TR-FRET assay
[55] = target: T13, Cyclin-dependent kinase 4; assay: Inhibition of CDK4 (unknown origin) by LANCE ULight TR-FRET assay
[56] = target: T2, Cyclin-dependent kinase 2; assay: Inhibition of CDK2 (unknown origin) by LANCE ULight TR-FRET assay
[57] = target: T5, Cyclin-dependent kinase 8; assay: Inhibition of CDK8 (unknown origin) by LANCE ULight TR-FRET assay
[58] = target: T14, Cyclin-dependent kinase 6; assay: Inhibition of CDK6 (unknown origin)
[59] = target: T5, Cyclin-dependent kinase 8; assay: Inhibition of CDK8 (unknown origin)
[60] = target: T11, Cyclin-dependent kinase 5; assay: Inhibition of CDK5 (unknown origin)

T5 sequence (P49336 whole entry): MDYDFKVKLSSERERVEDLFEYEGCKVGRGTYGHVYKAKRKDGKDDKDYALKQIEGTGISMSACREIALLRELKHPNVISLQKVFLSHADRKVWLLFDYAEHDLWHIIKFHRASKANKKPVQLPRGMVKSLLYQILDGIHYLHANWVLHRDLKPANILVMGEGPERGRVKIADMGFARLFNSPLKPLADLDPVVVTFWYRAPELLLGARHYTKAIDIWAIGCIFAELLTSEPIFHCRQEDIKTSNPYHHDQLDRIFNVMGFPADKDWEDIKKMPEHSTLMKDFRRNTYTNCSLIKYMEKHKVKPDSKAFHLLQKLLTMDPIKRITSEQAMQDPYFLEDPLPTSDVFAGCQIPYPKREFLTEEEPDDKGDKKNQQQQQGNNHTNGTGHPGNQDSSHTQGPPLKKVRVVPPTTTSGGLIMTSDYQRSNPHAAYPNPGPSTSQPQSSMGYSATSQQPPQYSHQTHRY
T14 sequence (Q00534 whole entry): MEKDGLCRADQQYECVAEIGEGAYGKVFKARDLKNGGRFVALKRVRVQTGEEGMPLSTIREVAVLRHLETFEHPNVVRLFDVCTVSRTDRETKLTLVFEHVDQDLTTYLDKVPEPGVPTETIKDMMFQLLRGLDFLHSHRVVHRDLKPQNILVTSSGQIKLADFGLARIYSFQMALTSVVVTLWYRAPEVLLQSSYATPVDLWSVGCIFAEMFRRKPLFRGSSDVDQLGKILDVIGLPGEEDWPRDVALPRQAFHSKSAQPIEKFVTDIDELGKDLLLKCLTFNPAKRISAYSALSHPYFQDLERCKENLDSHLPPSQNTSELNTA
T3 sequence (P50750 whole entry): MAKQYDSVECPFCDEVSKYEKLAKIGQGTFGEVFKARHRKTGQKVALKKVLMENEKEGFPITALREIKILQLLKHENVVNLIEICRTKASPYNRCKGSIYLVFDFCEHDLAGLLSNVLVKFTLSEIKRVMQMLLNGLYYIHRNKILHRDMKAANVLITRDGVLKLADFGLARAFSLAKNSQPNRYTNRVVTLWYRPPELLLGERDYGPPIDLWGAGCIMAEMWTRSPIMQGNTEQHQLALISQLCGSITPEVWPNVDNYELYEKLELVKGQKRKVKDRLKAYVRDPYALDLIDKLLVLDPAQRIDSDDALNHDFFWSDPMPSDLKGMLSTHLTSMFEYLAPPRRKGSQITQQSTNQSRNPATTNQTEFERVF
T13 sequence (P11802 whole entry): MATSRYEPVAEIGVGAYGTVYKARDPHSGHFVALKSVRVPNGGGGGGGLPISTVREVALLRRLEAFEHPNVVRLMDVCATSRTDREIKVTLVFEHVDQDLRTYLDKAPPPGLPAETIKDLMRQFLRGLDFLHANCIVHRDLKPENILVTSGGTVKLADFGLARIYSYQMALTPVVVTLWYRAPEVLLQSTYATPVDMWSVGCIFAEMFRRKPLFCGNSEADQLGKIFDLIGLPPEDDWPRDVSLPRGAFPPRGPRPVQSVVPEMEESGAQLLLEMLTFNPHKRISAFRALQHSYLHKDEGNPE
T11 sequence (Q00535 whole entry): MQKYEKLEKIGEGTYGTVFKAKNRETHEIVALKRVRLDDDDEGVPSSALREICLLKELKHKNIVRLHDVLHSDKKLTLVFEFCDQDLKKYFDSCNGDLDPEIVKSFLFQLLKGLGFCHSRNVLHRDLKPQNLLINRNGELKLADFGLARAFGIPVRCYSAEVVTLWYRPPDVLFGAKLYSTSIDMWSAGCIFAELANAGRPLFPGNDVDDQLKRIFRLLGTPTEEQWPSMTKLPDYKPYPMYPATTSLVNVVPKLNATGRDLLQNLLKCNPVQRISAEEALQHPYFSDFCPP
T8 sequence (P50613 whole entry): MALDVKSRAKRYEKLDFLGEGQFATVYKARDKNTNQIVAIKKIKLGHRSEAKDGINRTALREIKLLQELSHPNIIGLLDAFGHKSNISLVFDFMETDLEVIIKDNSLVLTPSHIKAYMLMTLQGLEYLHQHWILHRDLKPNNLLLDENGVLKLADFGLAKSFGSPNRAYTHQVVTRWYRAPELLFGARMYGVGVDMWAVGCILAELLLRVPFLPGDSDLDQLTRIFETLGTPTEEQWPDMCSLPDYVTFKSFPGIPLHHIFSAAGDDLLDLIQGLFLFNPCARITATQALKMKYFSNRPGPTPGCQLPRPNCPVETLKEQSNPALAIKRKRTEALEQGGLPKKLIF
T12 sequence (P50750 whole entry): as the sequence (P50750 whole entry) above
T12 sequence (Q96SW2 whole entry): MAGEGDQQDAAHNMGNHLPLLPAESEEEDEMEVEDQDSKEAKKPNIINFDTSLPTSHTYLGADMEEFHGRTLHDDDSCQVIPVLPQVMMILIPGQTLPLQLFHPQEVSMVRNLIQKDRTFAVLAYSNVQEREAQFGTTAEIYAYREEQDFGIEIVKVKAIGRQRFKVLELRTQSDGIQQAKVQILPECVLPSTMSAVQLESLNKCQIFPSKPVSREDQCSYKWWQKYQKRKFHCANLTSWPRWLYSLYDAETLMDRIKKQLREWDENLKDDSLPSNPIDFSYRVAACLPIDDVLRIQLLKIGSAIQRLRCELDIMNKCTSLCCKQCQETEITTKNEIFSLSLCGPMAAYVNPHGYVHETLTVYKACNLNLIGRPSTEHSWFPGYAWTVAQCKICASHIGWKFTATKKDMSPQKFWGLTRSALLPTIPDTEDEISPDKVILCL
T4 sequence (P06493 whole entry): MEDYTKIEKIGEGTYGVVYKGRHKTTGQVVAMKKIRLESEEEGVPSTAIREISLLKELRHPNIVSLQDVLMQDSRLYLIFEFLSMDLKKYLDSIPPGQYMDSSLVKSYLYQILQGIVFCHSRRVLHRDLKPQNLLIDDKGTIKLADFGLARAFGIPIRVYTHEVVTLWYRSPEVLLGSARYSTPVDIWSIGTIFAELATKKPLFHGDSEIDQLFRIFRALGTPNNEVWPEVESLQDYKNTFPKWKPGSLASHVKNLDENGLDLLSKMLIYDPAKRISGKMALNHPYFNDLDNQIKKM
T9 sequence (Q00536 whole entry): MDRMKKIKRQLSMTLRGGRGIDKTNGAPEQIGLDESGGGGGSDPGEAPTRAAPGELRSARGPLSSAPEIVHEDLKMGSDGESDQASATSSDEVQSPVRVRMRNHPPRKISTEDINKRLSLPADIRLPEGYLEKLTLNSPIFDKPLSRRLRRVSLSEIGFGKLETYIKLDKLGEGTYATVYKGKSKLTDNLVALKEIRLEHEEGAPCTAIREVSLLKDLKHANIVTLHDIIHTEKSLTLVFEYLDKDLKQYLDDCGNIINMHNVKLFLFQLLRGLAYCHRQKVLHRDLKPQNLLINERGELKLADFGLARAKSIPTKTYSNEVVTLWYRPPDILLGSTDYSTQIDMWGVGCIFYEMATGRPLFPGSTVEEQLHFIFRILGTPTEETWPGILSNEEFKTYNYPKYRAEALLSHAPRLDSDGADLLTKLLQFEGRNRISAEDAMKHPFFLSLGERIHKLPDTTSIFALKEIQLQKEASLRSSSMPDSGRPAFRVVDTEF
T6 sequence (Q07002 whole entry): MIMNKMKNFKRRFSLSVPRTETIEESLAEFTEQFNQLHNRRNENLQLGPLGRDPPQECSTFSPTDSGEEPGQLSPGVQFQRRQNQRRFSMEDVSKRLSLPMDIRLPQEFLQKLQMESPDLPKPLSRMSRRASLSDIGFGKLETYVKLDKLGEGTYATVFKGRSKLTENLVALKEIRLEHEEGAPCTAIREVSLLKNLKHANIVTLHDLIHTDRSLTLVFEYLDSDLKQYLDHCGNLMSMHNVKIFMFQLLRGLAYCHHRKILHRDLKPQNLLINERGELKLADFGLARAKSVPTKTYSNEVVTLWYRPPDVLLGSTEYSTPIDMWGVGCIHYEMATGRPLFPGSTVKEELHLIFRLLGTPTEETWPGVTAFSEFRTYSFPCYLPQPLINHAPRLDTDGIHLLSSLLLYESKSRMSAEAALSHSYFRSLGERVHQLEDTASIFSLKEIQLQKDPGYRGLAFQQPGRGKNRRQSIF
T16 sequence (P11802 whole entry): as the sequence (P11802 whole entry) above
T16 sequence (P24385 whole entry, further chain): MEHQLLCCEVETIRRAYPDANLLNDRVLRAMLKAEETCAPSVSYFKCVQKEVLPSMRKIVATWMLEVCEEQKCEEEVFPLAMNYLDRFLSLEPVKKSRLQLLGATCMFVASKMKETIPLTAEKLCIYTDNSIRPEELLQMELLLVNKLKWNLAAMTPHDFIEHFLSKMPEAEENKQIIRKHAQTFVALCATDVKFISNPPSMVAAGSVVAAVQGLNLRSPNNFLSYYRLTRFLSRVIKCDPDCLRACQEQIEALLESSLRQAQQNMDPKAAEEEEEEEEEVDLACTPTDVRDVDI
T10 sequence (Q00537 whole entry): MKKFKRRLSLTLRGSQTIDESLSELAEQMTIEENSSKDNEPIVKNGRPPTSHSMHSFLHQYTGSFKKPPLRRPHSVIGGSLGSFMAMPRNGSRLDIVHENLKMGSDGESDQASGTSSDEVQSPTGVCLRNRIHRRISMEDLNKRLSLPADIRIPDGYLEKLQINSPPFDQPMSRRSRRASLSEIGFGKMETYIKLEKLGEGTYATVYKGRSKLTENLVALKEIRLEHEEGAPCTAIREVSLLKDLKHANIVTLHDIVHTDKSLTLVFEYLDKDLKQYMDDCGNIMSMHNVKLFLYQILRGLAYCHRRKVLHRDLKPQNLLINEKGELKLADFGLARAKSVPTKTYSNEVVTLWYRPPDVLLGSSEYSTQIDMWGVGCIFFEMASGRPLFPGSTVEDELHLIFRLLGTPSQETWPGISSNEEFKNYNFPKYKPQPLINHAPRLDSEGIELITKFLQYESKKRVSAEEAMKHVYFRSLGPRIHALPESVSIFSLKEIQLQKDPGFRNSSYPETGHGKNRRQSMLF

Nc1nc(N[C@H]2CC3CCC2C3)sc1C(=O)c1ccccc1[N+](=O)[O-] (some centres not stated)
pIC50 [1]: 6.86 | pIC50 [2]: 6.95 | pIC50 [3]: 6.80 | pIC50 [4]: 6.40 | pIC50 [5]: 6.15 | pIC50 [6]: 6.26

COCCN1CCN(Cc2ccc(-c3n[nH]c4c3C(=O)c3c(NC(=O)NN5CCOCC5)cccc3-4)cc2)CC1 [RGB-286638]
pIC50 [3]: 8.30

COc1cc(O)c2c(=O)cc(-c3ccc(N4CCN(C)CC4)cc3)oc2c1N1CCNCC1
pIC50 [7]: 5.93 | pIC50 [8]: 7.52

COC[C@@H](C)N[C@H]1CC[C@H](Nc2cc(-c3cccc(NCC4(C#N)CCOCC4)n3)c(Cl)cn2)CC1
pIC50 [9]: 6.23 | pIC50 [10]: < 5.00 | pIC50 [11]: 6.46 | pIC50 [12]: 5.31 | pIC50 [13]: 5.46 | pIC50 [14]: < 5.00 | pIC50 [15]: 6.22 | pIC50 [16]: > 9.29 | pIC50 [17]: 5.82 | pIC50 [18]: 5.98 | pIC50 [19]: 6.15 | inhibition [20]: 99%

CC(C)(C)c1cnc(CSc2cnc(NC(=O)C3CCN(CC(=O)NCCOCCOCCOCCNc4cccc5c4C(=O)N(C4CCC(=O)NC4=O)C5=O)CC3)s2)o1 (configuration not stated)
DC50 [21]: < 250 nM

O=C1CCC(N2C(=O)c3cccc(NC(=O)CCCCCn4cc(Oc5c(O)cc(O)c6c(=O)cc(-c7ccccc7)oc56)nn4)c3C2=O)C(=O)N1 (configuration not stated)
DC50 [22]: 10000 nM

CCCc1cc(N[C@@H]2CC[C@@H](N)C2)n2nccc2n1
pIC50 [23]: < 5.92 | pIC50 [24]: < 5.92 | pIC50 [25]: < 5.92 | pIC50 [26]: < 5.92 | pIC50 [27]: < 5.92 | pIC50 [28]: < 5.92 | pIC50 [29]: < 5.92 | pIC50 [30]: < 5.92 | pIC50 [31]: 5.34 | pIC50 [32]: 5.21 | pIC50 [33]: < 5.92 | pIC50 [34]: < 5.92 | pIC50 [35]: 4.74

COc1ccccc1-c1cc(Nc2cccc(CS(N)(=O)=O)c2)ncn1
pIC50 [36]: 5.61 | pIC50 [37]: < 5.00 | pIC50 [38]: < 5.00 | pIC50 [39]: 5.03 | pIC50 [40]: 5.26

CN(C)CCNC(=O)c1ccc(Nc2ncc3cc(C(=O)N(C)C)n(C4CCCC4)c3n2)c(F)c1
pIC50 [41]: 8.60 | pIC50 [42]: 8.15

O=C1N=NC(=O)/C(=C/Nc2ccc(-c3nc4ncccc4[nH]3)cc2)C(=O)N1
pIC50 [43]: 6.30

Nc1n[nH]c(N)c1/N=N/c1ccc(O)cc1
pIC50 [44]: 5.46

Fc1ccc(N2CCCCC2)c(NC(=S)c2ccncc2)c1
pIC50 [45]: 4.52

CN1CCC(c2c(O)cc(O)c3c(=O)cc(-c4ccccc4Cl)oc23)C1CO (configuration not stated) [RIVICICLIB]
pIC50 [46]: 7.10 | pIC50 [47]: 7.20 | pIC50 [48]: 6.65 | pIC50 [49]: 6.40

CC(C)c1ccc(Nc2nccc(-c3cnn4ncccc34)n2)cc1 [GW805758X]
pIC50 [50]: 7.70 | pIC50 [51]: 8.96 | pIC50 [52]: 8.57

COc1ccc(F)cc1-c1c(F)cnc2[nH]c(C3=CCN([C@H]4CC[C@H](C(=O)O)CC4)CC3)cc12
pIC50 [53]: 4.84 | pIC50 [54]: 6.46 | pIC50 [55]: 7.79 | pIC50 [56]: 6.48 | pIC50 [57]: 5.79

CN1CC[C@@H](c2c(O)cc(O)c3c(=O)cc(-c4ccc(C(F)(F)F)cc4Cl)oc23)[C@@H]1CO [VORUCICLIB]
pIC50 [58]: 6.68 | pIC50 [7]: 6.74 | pIC50 [59]: 7.92 | pIC50 [60]: 6.68
